Consider five compounds from patent US5179084A, “Antiviral phosphoric acid esters of oxetanocins” (Nippon Kayaku Kabushiki Kaisha, priority 1989, dated 1993).

SMILES strings stand for the structures. Converted amounts (≈) assume the structure as drawn.

The target in assay [1] is HBV-intrinsic DNA polymerase (Hepatitis B virus adr4, UniProt P12933). Nature of the assay: Inhibitory activity on HBV-intrinsic DNA polymerase, HBV core particles from HB611 cells. In kind it is biochemical. How it is done:
1. Partial purification of HBV core particles
After HB611 cells were homogenized with buffer solution for extraction shown below, the centrifugal supernatant (14000 rpm, 0° C., 30 minutes) was overlaid on 30% saccharose-containing buffer solution for extraction, which was subjected to supercentrifugation (35000 rpm, 4° C., 18 hours) to give crude core particle precipitates. The crude core particles were suspended in the buffer solution for extraction and purified by cesium chloride density-gradient centrifugation method to give partially purified core particles showing a density of 1.30 to 1.35 g/ml.
Buffer solution for extraction:
2-mercaptoethanol/1 mM PMSF): 10 mM
Tris-hydrochloride (pH 7.4), 1 mM EDTA, 10 mM
2. Measurement of HBV-intrinsic polymerase activity
The partially purified core particles were added to the reaction solution shown below. After incubating at 37° C. for 2 hours in the presence of Compound No. 3 in various concentrations, dCTP was added thereto in a final concentration of 1 mM. After incubation at 37° C. for an additional an hour, proteinase K, SDS, EDTA and tRNA were added thereto in final concentrations of 0.5 mg/ml, 1%, 10 mM and 200 μg/ml, respectively, followed by incubation at 45° C. for 2 hours. Thereafter HBV-DNA was purified by phenolchloroform extraction and ethanol precipitation and then subjected to electrophoresis with 1.5% agarose. Radioactive uptake in HBV-DNA was determined by autoradiography. The autoradiogram was scanned by a densitometer to calculate the inhibitory activity of Compound No. 3 against HBV-DNA polymerase.
Reaction solution: containing 50 mM Tris-hydrochloride
(pH 7.4), 30 mM magnesium chloride, 0.1 M
ammonium chloride, 0.2% 2-mercaptoethanol,
200 μM each of dATP, dGTP and dTTP

Assay [2] relates to cytomegalovirus (A0169 strain). Put plainly: Anti-cytomegalovirus activity, plaque formation in human fetal fibroblasts. As to conditions: Human betaherpesvirus 5, Fibroblast, 240 h, 100 PFU, 37° C., 10 days, read-out: Anti-cytomegalovirus Activity ED50 (50% inhibitory value). In kind it is cell-based. How it is done:
Anti-cytomegalovirus activity was determined by the following manner. A 35 mm.PHI. dish containing a single layer of human fetal fibroblasts was infected with 100 PFU (plaque forming units) of cytomegalovirus (A0169 strain). After adsorption for one hour, a medium (0.5% agarose, 2% fetal calf serum) containing a varied concentration of the compound of the present invention was superposed thereon, and the whole was cultured at 37° C. for 10 days in 5% (v/v) carbon dioxide incubator, after which the formation of plaque was measured. The results are shown in Table 3 in terms of 50% inhibitory value (ED50).

Assay [3] deals with DNA virus such as cytomegalovirus, hepatitis B virus, herpes virus. Put plainly: Antiviral activity (summary statement). As to conditions: summary of results.
Assay [4] deals with HIV. Put plainly: Anti-HIV activity in MT-4 cells, development of virus antigen by indirect fluorescent antibody method. In kind it is cell-based. As to conditions: for EC50: Human immunodeficiency virus 1, MT4, 96 h, MT-4 cells, 4 days culture after HIV infection, read-out: Development of Virus Antigen Activity ED50; for anti-HIV activity (in words): summary of results. How it is done:
MT-4 cell (about 10,000 cells/ml) was added to a 24 well tray, and then 100 μl of a solution containing a predetermined quantity of Compound No. 1 of the present invention was added. After culturing at 37° C. for 5 hours in 5% (v/v) carbon dioxide incubator, 10^3 to 10^4 infection units of HIV was added and cultured for 4 days. Then, a part of the cultured fluid was coated onto a slide glass and immobilized with acetone, after which development of virus antigen was observed by indirect fluorescent antibody method.
As the primary antibody of the fluorescent antibody method, a serum of AIDS patient was used. As its secondary antibody, FITC-labelled […] was used.

In assay [5] the target is T1, reverse transcriptase (RTase) of HIV (Human immunodeficiency virus type 1 group M subtype B, UniProt P04585).
T1 construct: Measurement of Activity of Reverse Transcriptase (RTase) of HIV; endogenous in cells; host or cells: MOLT-4/HTLV-IIIB cells persistently infected with HIV (viral protein made by the infection; crude lysate)
Nature of the assay: Inhibition of HIV reverse transcriptase (RTase), 3H-AMP uptake. In kind it is biochemical, human immunodeficiency virus (HTLV-IIIB). Here is the method:
Measurement of Activity of Reverse Transcriptase (RTase) of HIV
MOLT-4/HTLV-IIIB cells which were persistently infected with HIV were destroyed with Triton X-100 or the like to prepare crude enzyme (RTase).
Using poly(dT) and oligo(dA) as template primers, the following reaction solution was used.
2. Composition of reaction solution
______________________________________
5 mg/ml Bovine serum albumin
1M Tris-HCl buffer (pH 7.8)
100 mM Dithiothreitol 2.0
5 units/ml Oligo(dA) 4.0
Uptake of ^3 H-AMP in the acid-insoluble fraction in the reaction solution under the above conditions was determined by a liquid scintillation counter.

Chain of HBV-intrinsic DNA polymerase (P12933 whole entry): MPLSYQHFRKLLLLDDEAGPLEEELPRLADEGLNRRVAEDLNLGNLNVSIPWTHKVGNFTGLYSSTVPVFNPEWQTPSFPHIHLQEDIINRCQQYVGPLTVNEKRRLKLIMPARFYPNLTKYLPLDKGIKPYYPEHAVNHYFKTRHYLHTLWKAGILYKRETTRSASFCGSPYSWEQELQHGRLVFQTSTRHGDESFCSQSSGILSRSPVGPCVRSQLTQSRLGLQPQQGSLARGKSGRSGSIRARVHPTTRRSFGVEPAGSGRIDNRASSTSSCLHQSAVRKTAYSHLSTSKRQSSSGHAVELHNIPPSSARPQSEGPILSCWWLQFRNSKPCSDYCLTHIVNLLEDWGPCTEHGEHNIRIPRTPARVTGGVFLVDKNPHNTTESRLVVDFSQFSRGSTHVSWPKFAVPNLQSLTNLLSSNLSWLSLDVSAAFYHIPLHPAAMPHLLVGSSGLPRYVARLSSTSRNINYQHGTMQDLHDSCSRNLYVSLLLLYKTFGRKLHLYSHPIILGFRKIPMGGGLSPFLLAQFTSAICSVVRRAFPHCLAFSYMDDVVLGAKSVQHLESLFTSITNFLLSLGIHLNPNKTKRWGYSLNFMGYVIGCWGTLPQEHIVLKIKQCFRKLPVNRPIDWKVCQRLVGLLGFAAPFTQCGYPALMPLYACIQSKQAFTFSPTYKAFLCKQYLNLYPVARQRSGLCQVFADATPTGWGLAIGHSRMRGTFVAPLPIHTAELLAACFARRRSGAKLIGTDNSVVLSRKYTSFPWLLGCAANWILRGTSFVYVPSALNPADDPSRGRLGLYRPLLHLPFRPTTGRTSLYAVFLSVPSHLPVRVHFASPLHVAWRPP

With `Nc1nc2c(ncn2[C@@H]2O[C@H](COP(=O)(O)OP(=O)(O)OP(=O)(O)O)[C@H]2CO)c(=O)[nH]1` [Compound No. 3], the inhibition at 100 µM in assay [1] (100 μM, read-out: Inhibition Rate (HBV-DNA polymerase)) is 50.7%. The inhibition at 200 µM in assay [1] (200 μM, read-out: Inhibition Rate (HBV-DNA polymerase)) was 88.8%. In assay [1] (400 μM, read-out: Inhibition Rate (HBV-DNA polymerase)), the inhibition at 400 µM is 96.8%. The “inhibition of DNA polymerase of DNA virus (in words)” value in assay [1] (summary of results, 'the aforesaid DNA virus') is on record as “inhibits DNA polymerase of the aforesaid DNA virus”.

For `Nc1nc2c(ncn2[C@@H]2O[C@H](COP(=O)(O)O)[C@H]2CO)c(=O)[nH]1` [Compound No. 5], the EC50 in assay [2] amounted to 0.4 µg/mL (≈ 1.15 µM). Further, the “antiviral activity against DNA virus (in words)” value in assay [3] was “excellent antiviral activity against DNA virus”.

For the compound `Nc1ncnc2c1ncn2[C@H]1C[C@@H](COP(=O)(O)O)O1` [Compound No. 6], in assay [4], the EC50 was found to be 0.007 µg/mL (≈ 0.0232 µM) and the “anti-HIV activity (in words)” value is “excellent anti-HIV activity”.

In assay [5] (4.17 μM, 37° C., 1 hour), `Nc1ncnc2c1ncn2[C@@H]1O[C@H](COP(=O)(O)OP(=O)(O)OP(=O)(O)O)[C@H]1CO` [Compound No. 2] showed an inhibition at 4.17 µM of 1%. This compound also had an inhibition at 12.5 µM in assay [5] (12.5 μM, 37° C., 1 hour) of 33.9%. The compound further showed an inhibition at 125 µM in assay [5] (125 μM, 37° C., 1 hour) of 93%. In assay [5] (417 μM, 37° C., 1 hour), this compound came in with an inhibition at 417 µM of 98.8%. Also, in assay [5] (read-out: RTase Inhibition (%)), the inhibition at 42.7 µM amounted to 69.4%. The “reverse transcriptase inhibitory action of HIV (in words)” value in assay [5] (summary of results) is recorded as “shows reverse transcriptase inhibitory action of HIV”.

On to `Nc1ncnc2c1ncn2[C@@H]1O[C@H](COP(=O)(O)O)[C@H]1CO` [Compound No. 1], for which the EC50 in assay [2] was 1.85 µg/mL (≈ 5.59 µM). In addition, in assay [4], the EC50 worked out at 0.1 µg/mL (≈ 0.302 µM) and the “anti-HIV activity (in words)” value is “excellent anti-HIV activity”.

Broadly, the inhibition is the percentage by which the read-out fell short of the control.
